# According to patent US20260234188A1, “CHEMOKINE-BINDING PEPTIDES” (Oxford University Innovation Limited, priority 2022, published 2026):
# Entries after “also recorded” stand apart in the source; their conditions may differ.
# Test system: panel of up to 42 human chemokines
# Test: Phage-display next generation sequencing screen of overlapping hexadecapeptide libraries, chemokines displayed on streptavidin beads
# Type: binding
# Conditions: log2E greater than 5, chemokines named by first part of UniProt Entry Name
# Excerpt: FIG. 1. Exemplar results from phage display screens. Phage-display libraries were constructed and analysed as described in (McLaughlin, 2013) (Tonikian, 2007). […] FIG. 1A, CC chemokines against evasin A library. FIG. 1B, CXC chemokines against the evasin B library. FIG. 1C, CXC and CX3C chemokines against the viral chemokine binding protein library. FIG. 1D, CXC chemokines against the chemokine library. […] Identified hexadecapeptides were mapped to the position in the originating protein (x-axis) and to fold enrichment (log 2 E, left y-axis). Regions of interest (ROI) were defined where the cumulative residue log 2 E, (clog 2 E:r, right y-axis) exceeds the 95% upper confidence interval of the median clog 2 E:r for the entire protein (indicated as a horizontal dotted line in each panel). Proteins are referred to by their UniProt ID.
# Hexadecapeptides were identified using a phage-display next generation sequencing approach (McLaughlin, 2013). Libraries containing a total of 55662 overlapping peptides (from the tick chemokine binding proteins shown in Tables 3A and 3B, the viral chemokine binding proteins shown in Table 3C, the human chemokines shown in Table 3 E, and the human/viral chemokine receptors and other chemokine-binding proteins shown in Table 3D) were first constructed, and then screened against a panel of up to 42 human chemokines, as shown in Table 3F.
row,Substance,Chemokines Bound
1,CR3716 (DVYLLNLAISDLLFVF),"CCL11, CCL2,; also recorded: CCL8, CXL11"
2,CR5246 (FIGIKIVYSFLWGIFP),"CCL20, CCL22,; also recorded: X3CL1, CXL10,; also recorded: CXL11"
3,CR2290 (AWFLPIMYSIICFVGL),"CCL20, CCL22, and CCL25, CCL28, and X3CL1, CXL10, and CXL11, SDF1, and CXL13, CXL14, and IL8"
4,CR5055 (FFYYLYVYLDIFSVVA),"CCL18, CCL2, and CCL22, CXL10, and SDF1"
5,CR5277 (FILYQFELFGFTLIFF),"CCL17, CCL22, and CCL25, CCL28, and CXL10, CXL11, and SDF1"
6,CR25167 (VLGLLLNSLALWVFSS),"CCL11, CCL17,; also recorded: CCL18, CXL11,; also recorded: CXL14"
7,CR4802 (FCALVTLITSLFGSIF),"CCL11, CCL17,; also recorded: CCL18, CCL19,; also recorded: CCL20, CCL22,; also recorded: CCL25, CCL28,; also recorded: CCL8, X3CL1,; also recorded: CXL10, CXL11,; also recorded: SDF1, CXL13,; also recorded: CXL14, IL8"
8,CR26500 (WFLPIMYSIICFVGLL),"CCL28, SDF1,; also recorded: CXL14"
9,CR23773 (TSVITWLVAVFASVPG),"CCL1, CCL18, and CCL2, CCL20, and CCL8"
10,CR23587 (TRLGVWLMAIVGTFLN),"CCL18, CCL20,; also recorded: CCL22"
11,CR28005 (YVSTLDFAIVFILMII),"CCL17, CCL18,; also recorded: CCL19, CCL20,; also recorded: CCL22, CCL28,; also recorded: X3CL1, CXL10,; also recorded: CXL11, SDF1,; also recorded: CXL13"
12,CR2291 (AWFLPIMYSIISFVGL),"CCL1, CCL11, and IL8"
13,CR26633 (WLMSIVGTFLNMLVIT),"CCL11, CCL17,; also recorded: CCL18, CCL19,; also recorded: CCL20, CCL22,; also recorded: CCL25, CCL28,; also recorded: X3CL1, CXL10"
14,CR3107 (DFAAILLYIDDFSAYF),"CCL18, X3CL1,; also recorded: CXL13"
15,CR4205 (ELFLAVKIVFSFIWGV),"CCL11, CCL17,; also recorded: CCL18, CCL19,; also recorded: CCL2, CCL20,; also recorded: CCL22, CCL25,; also recorded: CCL28, X3CL1,; also recorded: CXL10, CXL11,; also recorded: SDF1, CXL13,; also recorded: CXL14, IL8"
16,CR23111 (TLFASDFVLMWAVFFM),"CCL15, CCL17,; also recorded: CCL20, CCL25,; also recorded: CXL14"
17,CR23943 (TVITFALYVGQFLAYV),"CCL2, CCL20,; also recorded: CCL22, X3CL1,; also recorded: CXL10, CXL11,; also recorded: SDF1, CXL13"
18,CR5416 (FLAFLRSGYDMWLMLV),"CCL1, CCL11, and CCL17, CCL18, and CCL2, CCL20, and CXL11, CXL13, and IL8"
19,CR23880 (TTVILILAFFASWLPY),"CCL1, CCL18,; also recorded: CCL20, CCL25,; also recorded: CCL28, SDF1,; also recorded: CXL14"
20,CR5518 (FLGLMASVWTHLGMAL),"CCL2, CXL10,; also recorded: CXL11"
21,CR27448 (YLLNLAISDLLFVFSL),"CCL1, CCL2,; also recorded: CXL11, IL8"
22,CR4754 (FARAIDIIYSLITSAN),"CCL18, CCL28,; also recorded: X3CL1"
23,CR26155 (VVLIFLLSWLPYNLVL),"CCL15, CCL28,; also recorded: CXL10, CXL13"
24,CR27677 (YSAFLSGMTSLLLVLL),"CCL17, CCL18,; also recorded: CCL20, CCL25,; also recorded: CXL10, CXL14"
25,CR5262 (FILALVGNTLALWLFI),"CCL22, CCL28,; also recorded: SDF1, IL8"
26,CR26801 (WVFIFSSIQLCTVVFL),"CCL1, CCL17,; also recorded: CCL18, CCL19,; also recorded: CCL20, CCL28,; also recorded: X3CL1, SDF1"
27,CR26831 (WVLVIGSLVARWLLGI),"CCL17, CCL2,; also recorded: X3CL1, CXL10"
28,CR24960 (VIMMTWFYAFFYSTVQ),"CCL1, CCL17,; also recorded: CCL18, CCL2,; also recorded: CCL22, CCL25,; also recorded: CCL28, CCL5,; also recorded: X3CL1, CXL11,; also recorded: CXL13, IL8"
29,CR26036 (VTSLLIWVISLLVSLP),"CCL28, X3CL1, and SDF1, CXL14, and IL8"
30,CR25407 (VLYFIADEVYTVLLSW),"CCL15, CCL17, and CCL18, CCL19, and CCL20, CCL25, and X3CL1, CXL10, and CXL11, CXL13, and IL8"

# Same assay, conditions: log2E greater than 5, chemokines named by first part of UniProt Entry Name, peptides binding complement C5a (control) excluded
row,Substance,Chemokines Bound
1,CR6212 (FSTFSGMLVYILLLPV),"CXL11, CXL13, and IL8"
2,CR6515 (FWTPYNIVLFLETLVE),"CCL20, CCL22, and CXL10, CXL13, and IL8"
3,CR7000 (GIFFIILLTIDRYLAV),"CCL17, X3CL1,; also recorded: CXL10"
4,CR6324 (FTWNLVLSQFFSILAT),"CCL11, CCL28,; also recorded: X3CL1, CXL11,; also recorded: CXL13"
5,CR7024 (GIITSVLAWVTAILAT),"CCL2, CCL22,; also recorded: CCL28, CXL10,; also recorded: CXL11, SDF1,; also recorded: CXL13, IL8"
6,EB3974 (VGLCLSTEYTDFSEYP),"CXL10, SDF1,; also recorded: CXL14"
7,CR5768 (FMFVLSVLGNLTVVCV),"CCL19, CCL22,; also recorded: CCL25"
8,CR8813 (IFFIILLTIDRYLAVV),"CCL17, CCL18,; also recorded: CCL20, CCL25,; also recorded: CCL28, CXL10,; also recorded: CXL11, CXL13,; also recorded: CXL14, IL8"
9,CR6269 (FTGMPPADEDYSPCML),"CCL11, CCL17,; also recorded: CCL18, CCL19,; also recorded: CCL20"
10,VP3426 (GSMMLSLLIAGMSLML),"CCL2, CCL5, and X3CL1, CXL10, and IL8"
11,EB3975 (VGLCLSTEYTDFTKFP),"CXL10, CXL11,; also recorded: SDF1, CXL14"
12,CR7818 (GVWLMAIVGTFLNMLV),"CCL1, CCL18,; also recorded: CXL11, SDF1,; also recorded: CXL14"
13,EB2359 (NDKKVGLCLSTEYTDF),"CXL10, CXL11,; also recorded: SDF1, CXL14"
14,CR7823 (GVWLMSIVGTFLNVLV),"CCL11, CCL17, and CCL18, CCL2, and CCL8, CXL10, and CXL11, CXL14, and IL8"
15,CR7854 (GWVFIFSSIQLATVVF),"CCL1, CCL15, and CCL17, CCL19, and CCL20, CCL22, and CCL28, X3CL1, and CXL10, CXL11, and SDF1, CXL13, and IL8"
16,LTDGTACYVVERKVWD [HD2313],"CCL19, CCL20,; also recorded: CCL28"
17,CR6097 (FSIFWWIFAVIIAIPH),"CXL10, SDF1,; also recorded: IL8, CCL1,; also recorded: CCL15, CCL22,; also recorded: CCL5, X3CL1,; also recorded: CXL11, CXL13"
18,VP988 (CIILLVYVYATFATKG),"CCL1, CCL8,; also recorded: X3CL1, CXL10,; also recorded: CXL11"
19,VP5438 (LIKAAILLLAGGLAES),"CCL17, CCL20,; also recorded: CCL25, CCL28,; also recorded: CCL5, CXL10"
20,VP10866 (VNASIAWFFDFGACRM),"X3CL1, CXL10,; also recorded: CXL11"

# Same assay, conditions: log2E greater than 5, chemokines named by first part of UniProt entry name, C5a (control) binders excluded
row,Substance,Chemokines Bound
1,CR17298 (PGPWMNILWAWFIFWW),"CCL1, CCL17,; also recorded: CCL18, CCL19,; also recorded: CCL20, CCL28,; also recorded: CXL10, CXL14"
2,CR12872 (LIYLFLLLWEDTQGWG),"CCL1, CCL18, and CCL19, CCL2, and CCL20, CCL25, and CXL10, SDF1, and IL8"
3,CR20965 (SLFAALVTLITSLFGS),"CCL11, CCL17,; also recorded: CCL18, CCL19,; also recorded: CCL2, CCL20,; also recorded: CCL28, X3CL1,; also recorded: CXL10, CXL11,; also recorded: CXL14, IL8"
4,CR22748 (TFKILISIVWGVMPVV),"CCL17, CCL18,; also recorded: CCL19, CCL20,; also recorded: CCL22, CCL28,; also recorded: X3CL1, CXL10,; also recorded: CXL11, SDF1,; also recorded: CXL14, IL8"
5,CR2290 (AWFLPIMYSIICFVGL),"CCL1, CCL17,; also recorded: CCL18, CCL19,"
6,CR2278 (AVWGLSLLFALPDFIF),"CCL18, CCL2,; also recorded: CCL22, CCL28,; also recorded: CXL10, CXL11,; also recorded: SDF1, CXL13,; also recorded: CXL14, IL8"
7,CR11776 (LAVKIVFSFIWGVLPT),"CCL17, CCL18,; also recorded: CCL19, CCL20,; also recorded: CCL22, CCL25,; also recorded: CCL8, X3CL1,; also recorded: CXL10, CXL11,; also recorded: SDF1, CXL13,; also recorded: CXL14, IL8"
8,CR10008 (ITLFASDFVLMWAVFF),"CCL1, CCL22,; also recorded: CXL10, CXL11"
9,CK6066 (VCADPSESWVQEYVYD),"CCL19, CCL28,; also recorded: X3CL1, IL8"
10,CR14086 (LQTVITFALYVGQFLA),"CCL15, CCL2,; also recorded: CCL28, X3CL1"
11,CR1124 (ALIQMLEICIGFVVPF),"CCL18, CCL19,; also recorded: CCL20"
12,CR14752 (LVFIFGFVGNMLVVLI),"CCL17, CCL25,; also recorded: CXL10"
13,CR14849 (LVLGLLLNSLALWVFC),"CCL17, CCL19, and CCL20, CCL28, and SDF1"
14,CR22272 (SWKVLLTLVWGAAPVI),"CCL17, CCL18,; also recorded: CCL20, CCL22,; also recorded: CCL25, CCL28,; also recorded: X3CL1, CXL10,; also recorded: CXL11, SDF1,; also recorded: CXL14, IL8"
15,CR13203 (LLIMLFSYGFTLRTLF),"CCL18, CCL22, and CCL28, X3CL1, and SDF1"
16,CR18714 (QYLKAFLAAVLGWHLA),"CCL18, CCL28,; also recorded: CXL13, CXL14"
17,CR22363 (SYRSTYIILLLTWFAG),"CCL18, X3CL1,; also recorded: CXL10"
18,CR20273 (SESALAFIYVLMFLCN),"CCL18, CCL19,; also recorded: CCL20, CXL14"
19,CR12240 (LFMFVLSVLGNLTVVS),"CCL17, CCL18,; also recorded: CCL19, CCL25,; also recorded: CCL28, CXL10,; also recorded: CXL11, SDF1"
20,CR12277 (LFSFNRFFCQLVYFIY),"CCL18, CCL25,; also recorded: X3CL1, CXL10"
21,CR14765 (LVFLLSLVGNSLVLWV),"CCL2, CCL28,; also recorded: CXL10, IL8"
22,CR20486: chemokine binding peptide of Table 5A used in FIG. 5 combinations (SGIITSVLAWVTAILA),"CCL11, CCL2,; also recorded: CCL8, IL8"
